Assay results reported in patent US12533341B2, “Small molecule inhibitors of voltage-gated sodium channel 1.7 and methods of using same” (Duke University, priority 2019, dated 2026).
Entries after “also recorded” stand apart in the source; their conditions may differ.

Key:
[1] = tested on: human dorsal root ganglion (DRG) neurons; test: Patch-clamp of transient sodium currents in human DRG neurons; type: cell-based
Method: Non-diseased human DRGs were obtained from donors through NDRI with permission of exemption from Duke IRB. Postmortem L3-L5 DRGs were dissected and delivered in ice-cold culture medium to the laboratory at Duke University within 24-72 hours of donor's death. Upon the delivery, DRGs were rapidly dissected from nerve roots and minced in a calcium-free HBSS (Gibco). DRGs were digested at 37° C. in a humidified 02 incubator for 120 min with collagenase Type II (Worthington, 285 units/mg, 12 mg/mL final concentration) and dispase II (Roche, 1 unit/mg, 20 mg/mL) in HBSS buffer. DRGs were mechanically dissociated using fire-polished pipettes, filtered through a […] nylon mesh and centrifuged (500×g for 5 min). The pellet was resuspended, plated on 0.5 mg/mL poly-D-lysine-coated glass coverslips, and cells were grown in Neurobasal medium supplemented with 10% FBS, 2% B-27 supplement, and 1% penicillin/streptomycin. Patch clamp recordings were conducted in small-diameter (<55 μm) DRG neurons (PMID: 26479925).
Whole-cell patch-clamp recordings were conducted at room temperature. Patch pipettes pulled from borosilicate capillaries (World Precision Instruments, Inc., Sarasota, FL) were used to record transient Na currents with an Axopatch-200B amplifier with a Digidata 1440A (Axon Instruments, Sunnyvale CA). The resistance was set to 3-4 MΩ when filled with pipette solution. […]

[2] = target: T1, hNav1.5 (Homo sapiens, UniProt Q14524); test: Whole-cell patch-clamp of sodium currents in Nav1.5-transfected HEK293 cells; type: cell-based; details: FIG. 4D, E
T1 construct: expressed in transfected cells; host or cells: HEK293 (ATCC), transient transfection with Lipofectamine 2000
T1 sequence (Q14524 whole entry): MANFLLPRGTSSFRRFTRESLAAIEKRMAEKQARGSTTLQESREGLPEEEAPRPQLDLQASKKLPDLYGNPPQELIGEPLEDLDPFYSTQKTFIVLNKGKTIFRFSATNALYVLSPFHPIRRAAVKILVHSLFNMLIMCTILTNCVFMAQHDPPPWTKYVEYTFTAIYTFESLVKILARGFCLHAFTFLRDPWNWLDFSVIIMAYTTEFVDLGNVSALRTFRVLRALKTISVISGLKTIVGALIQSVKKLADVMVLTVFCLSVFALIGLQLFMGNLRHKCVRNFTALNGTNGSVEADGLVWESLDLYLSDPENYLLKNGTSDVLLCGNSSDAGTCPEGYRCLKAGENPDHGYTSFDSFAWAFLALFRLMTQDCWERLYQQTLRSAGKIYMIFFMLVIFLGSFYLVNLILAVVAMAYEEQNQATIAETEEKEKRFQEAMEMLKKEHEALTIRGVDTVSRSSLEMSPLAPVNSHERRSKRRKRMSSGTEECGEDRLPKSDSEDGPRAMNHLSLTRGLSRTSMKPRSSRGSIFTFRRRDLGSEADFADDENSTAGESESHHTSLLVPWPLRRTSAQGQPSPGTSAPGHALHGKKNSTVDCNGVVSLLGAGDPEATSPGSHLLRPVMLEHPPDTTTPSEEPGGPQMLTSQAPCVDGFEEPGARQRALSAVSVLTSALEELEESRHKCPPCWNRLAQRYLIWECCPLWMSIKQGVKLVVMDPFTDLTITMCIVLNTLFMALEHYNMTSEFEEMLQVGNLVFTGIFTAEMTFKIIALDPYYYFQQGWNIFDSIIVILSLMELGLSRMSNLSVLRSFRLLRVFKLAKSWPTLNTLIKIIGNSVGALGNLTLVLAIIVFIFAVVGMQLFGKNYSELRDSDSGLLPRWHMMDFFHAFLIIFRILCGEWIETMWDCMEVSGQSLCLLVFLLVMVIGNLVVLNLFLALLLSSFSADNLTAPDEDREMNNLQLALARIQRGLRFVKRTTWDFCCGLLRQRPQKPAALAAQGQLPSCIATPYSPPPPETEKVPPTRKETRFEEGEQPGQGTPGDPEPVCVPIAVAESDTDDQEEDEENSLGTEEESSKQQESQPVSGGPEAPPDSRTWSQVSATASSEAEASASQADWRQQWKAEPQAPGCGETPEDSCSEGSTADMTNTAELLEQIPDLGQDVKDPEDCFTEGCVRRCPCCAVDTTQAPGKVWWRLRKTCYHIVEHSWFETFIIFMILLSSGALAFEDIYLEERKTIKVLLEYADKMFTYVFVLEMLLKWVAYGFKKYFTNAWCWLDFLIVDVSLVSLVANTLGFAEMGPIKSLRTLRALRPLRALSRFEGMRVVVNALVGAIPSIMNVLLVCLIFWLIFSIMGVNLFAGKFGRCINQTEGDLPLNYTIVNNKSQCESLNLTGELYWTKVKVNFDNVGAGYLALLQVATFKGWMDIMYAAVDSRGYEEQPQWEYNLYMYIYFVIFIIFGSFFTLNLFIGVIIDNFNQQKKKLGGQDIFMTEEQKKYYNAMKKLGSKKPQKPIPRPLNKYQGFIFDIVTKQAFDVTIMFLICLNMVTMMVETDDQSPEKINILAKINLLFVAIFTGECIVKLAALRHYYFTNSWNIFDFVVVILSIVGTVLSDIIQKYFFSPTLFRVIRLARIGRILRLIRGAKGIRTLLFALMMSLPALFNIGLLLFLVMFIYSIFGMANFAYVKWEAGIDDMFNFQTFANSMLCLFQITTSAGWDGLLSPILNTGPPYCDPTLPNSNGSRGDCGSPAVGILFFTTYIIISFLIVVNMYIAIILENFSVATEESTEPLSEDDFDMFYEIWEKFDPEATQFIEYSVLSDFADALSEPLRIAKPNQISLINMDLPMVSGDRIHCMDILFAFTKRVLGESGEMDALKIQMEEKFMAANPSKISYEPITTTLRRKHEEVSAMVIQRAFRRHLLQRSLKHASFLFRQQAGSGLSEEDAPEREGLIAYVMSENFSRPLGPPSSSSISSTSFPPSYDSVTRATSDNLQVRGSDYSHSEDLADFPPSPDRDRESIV
Method: HEK-hNav1.7 stable cell line was purchased from SB Drug Discovery (Glasgow, United Kingdom). Human embryonic kidney 293 (HEK293) cells were obtained from the ATCC and maintained at the Duke cell culture facility. Cells were cultured in high-glucose (4.5 g/L) DMEM containing 10% (v/v) FBS (Gibco) and streptomycin/penicillin. For Nav1.7-expressing HEK293 cells, an additional antibiotic, blasticidin, was included. hNav1.5 transfection was performed by Lipofectamine 2000 at 70% confluence using 2 μg cDNA. The transfected cells were cultured in the same growth medium for 48 h before biochemical or electrophysiological studies.
Whole-cell patch-clamp recordings were conducted at room temperature. Patch pipettes pulled from borosilicate capillaries (World Precision Instruments, Inc., Sarasota, FL) were used to record transient Na currents with an Axopatch-200B amplifier with a Digidata 1440A (Axon Instruments, Sunnyvale CA). The resistance was set to 3-4 MΩ when filled with pipette solution. The pipette solution contained (in mmol/L): CsCl 130, NaCl 9, MgCl2 1, EGTA 10, HEPES 10, adjusted to pH 7.3 with CsOH. The external solution for recording transient Na^+ currents contained (in mmol/L): NaCl 131, TEACl 10, CsCl 10, CaCl2) 1, MgCl2 2, CdCl2 0.3, 4-aminopyridine 3, HEPES 10, glucose 10, adjusted to pH 7.4 with NaOH. The recording chamber (300 μL) was continuously superfused at 3-4 mL/min. […]

[3] = tested on: lymphoma-induced chronic itch; test: Mouse CTCL xenograft model of chronic itch; type: in vivo
Method: We used a murine xenograft model of cutaneous T cell lymphoma (CTCL) using immune-deficient mice (NOD.CB17-Prkdcscid, 8-10 weeks old, male). CD4+ MyLa cell line was purchased from Sigma (Catalog #95051032). The cell line was established from a plaque biopsy of a person with mycosis fungoides stage II by inclusion of IL-2 and IL-4 in the culture medium. CTCL was generated via intradermal injection of CD4+ Myla cells (1×10^5 cells/μL, 100 μL) on the nape of the neck. Itch behavior was tested on Day 50 after inoculation of CTCL cells.

With `O=C(CC(c1cccc(Oc2ccccc2)c1)c1cn(Cc2ccccc2)c2ccccc12)NCCN1CCCC1` (stereo not drawn) [Compound 9, 3-(1-benzyl-1H-indol-3-yl)-3-(3-phenoxyphenyl)-N-(2-(pyrrolidin-1-yl)ethyl)propanamide] the “mean relative current at the last measurement” value [1] was 73 % of the baseline, the “relative current difference (inhibition of peak INaT)” value ([1]; 10 uM) was 0.22 and the “effect on sodium currents in Nav1.5-expressing HEK293 cells” value [2] was “no effects”. The “effect on sodium currents in Nav1.5-expressing HEK293 cells” value ([2]; listed as DA-0218) was “no effect”, the “effect duration, chronic itch” value ([3]; intrathecal) was > 5 h and the “effect on lymphoma-induced chronic itch (scratch)” value ([3]; intrathecal 30 nmol, Day 50 after CTCL inoculation, listed as DA-0218) was “inhibited; also recorded: significant reduction of scratch; also recorded: effective against lymphoma-induced itch”.
